Measured values: ChEMBL document CHEMBL2062514 (J Med Chem, 2012)

Experiments:
[1] = target: T1, Adenosine receptor A1 (Homo sapiens) (UniProt P30542); test: Displacement of [3H]R-PIA from human recombinant adenosine A1 receptor expressed in CHO cells at 10 uM after 60 mins by liquid scintillation counting; type: cell-based
T1 sequence (whole entry): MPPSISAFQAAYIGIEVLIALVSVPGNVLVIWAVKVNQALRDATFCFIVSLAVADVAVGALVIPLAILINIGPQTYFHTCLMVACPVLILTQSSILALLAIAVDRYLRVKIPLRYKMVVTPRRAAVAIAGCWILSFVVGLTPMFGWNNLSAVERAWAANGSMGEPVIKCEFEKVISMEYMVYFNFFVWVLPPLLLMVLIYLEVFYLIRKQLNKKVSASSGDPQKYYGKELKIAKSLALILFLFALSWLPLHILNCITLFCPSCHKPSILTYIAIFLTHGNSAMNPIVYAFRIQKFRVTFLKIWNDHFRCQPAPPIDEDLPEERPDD

Adenosine receptor A2a = Adenosine receptor A2a (Homo sapiens, UniProt P29274); test: Displacement of [3H]CGS21680 from human recombinant adenosine A2A receptor expressed in HEK293 cells at 10 uM after 60 mins by liquid scintillation counting; type: cell-based
Adenosine receptor A2a, sequence (P29274 whole entry): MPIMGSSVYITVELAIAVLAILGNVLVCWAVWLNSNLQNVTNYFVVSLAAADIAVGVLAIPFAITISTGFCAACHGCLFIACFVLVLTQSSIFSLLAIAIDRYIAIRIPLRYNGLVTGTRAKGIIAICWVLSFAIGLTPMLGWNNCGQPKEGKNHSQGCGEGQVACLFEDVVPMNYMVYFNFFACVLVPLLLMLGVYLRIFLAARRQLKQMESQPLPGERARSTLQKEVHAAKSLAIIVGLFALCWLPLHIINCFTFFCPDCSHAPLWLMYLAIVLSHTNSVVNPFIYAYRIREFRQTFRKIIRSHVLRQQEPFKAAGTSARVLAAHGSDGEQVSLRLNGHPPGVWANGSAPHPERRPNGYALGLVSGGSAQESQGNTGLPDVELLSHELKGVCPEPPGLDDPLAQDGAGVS

Adenosine receptor A3 [2] = target: T2, Adenosine receptor A3 (Homo sapiens, UniProt P0DMS8); test: Displacement of [3H]I-AB-MECA from human recombinant adenosine A3 receptor expressed in CHO cells after 60 mins by gamma counting; type: cell-based
T2 sequence (P0DMS8 whole entry): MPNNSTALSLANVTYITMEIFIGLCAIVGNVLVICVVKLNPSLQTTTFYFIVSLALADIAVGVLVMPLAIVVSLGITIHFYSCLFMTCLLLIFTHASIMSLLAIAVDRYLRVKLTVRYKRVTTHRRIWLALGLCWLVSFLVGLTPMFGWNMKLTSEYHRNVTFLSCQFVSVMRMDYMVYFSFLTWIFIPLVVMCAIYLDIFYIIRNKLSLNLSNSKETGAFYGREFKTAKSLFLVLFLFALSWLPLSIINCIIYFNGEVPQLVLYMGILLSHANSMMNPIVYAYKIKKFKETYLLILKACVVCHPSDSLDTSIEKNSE

[3] = target: T3, Adenosine receptor A3 (Homo sapiens) (UniProt P0DMS8); test: Agonist activity at human recombinant adenosine A3 receptor expressed in CHO cells assessed as inhibition of forskolin-stimulated cAMP production at 10 uM incubated for 30 mins prior to forskolin-stimulation measured after 15 mins by enzyme immunoassay relative to NECA; type: functional, cell-based
T3 sequence (whole entry): T2 sequence (P0DMS8 whole entry)

Adenosine receptor A1 [4] = target: T4, Adenosine receptor A1 (Homo sapiens, UniProt P30542); test: Displacement of [3H]R-PIA from human recombinant adenosine A1 receptor expressed in CHO cells after 60 mins by liquid scintillation counting; type: cell-based
T4 sequence (P30542 whole entry): T1 sequence (whole entry)

Adenosine receptor A3 [5] = target: T5, Adenosine receptor A3 (Mus musculus, UniProt Q61618); test: Displacement of [125I]I-AB-MECA from mouse adenosine A3 receptor expressed in HEK293 cells after 60 mins by liquid scintillation counting
T5 sequence (Q61618 whole entry): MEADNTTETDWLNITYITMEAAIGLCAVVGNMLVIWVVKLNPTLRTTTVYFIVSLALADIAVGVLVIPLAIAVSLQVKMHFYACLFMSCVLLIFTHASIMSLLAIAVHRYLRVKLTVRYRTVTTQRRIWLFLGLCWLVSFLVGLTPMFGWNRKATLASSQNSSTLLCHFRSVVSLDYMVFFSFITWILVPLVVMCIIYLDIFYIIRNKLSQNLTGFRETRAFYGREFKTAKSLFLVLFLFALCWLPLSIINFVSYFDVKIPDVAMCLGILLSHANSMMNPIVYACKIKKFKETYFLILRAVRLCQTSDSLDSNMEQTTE

Adenosine receptor A1 [6] = target: T6, Adenosine receptor A1 (Mus musculus, UniProt Q60612); test: Displacement of [125I]I-AB-MECA from mouse adenosine A1 receptor expressed in HEK293 cells after 60 mins by liquid scintillation counting
T6 sequence (Q60612 whole entry): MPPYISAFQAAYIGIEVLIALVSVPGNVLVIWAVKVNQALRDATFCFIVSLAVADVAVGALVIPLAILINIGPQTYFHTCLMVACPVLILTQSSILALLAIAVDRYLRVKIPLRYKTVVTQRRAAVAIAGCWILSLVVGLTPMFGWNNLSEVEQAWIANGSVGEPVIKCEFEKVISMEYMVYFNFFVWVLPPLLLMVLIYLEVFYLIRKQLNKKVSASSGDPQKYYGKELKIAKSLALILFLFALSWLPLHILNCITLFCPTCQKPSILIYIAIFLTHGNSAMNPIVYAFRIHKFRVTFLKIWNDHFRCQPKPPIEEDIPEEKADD

[7] = target: Adenosine receptor A2a (Mus musculus) (UniProt Q60613); test: Displacement of [3H]CGS21680 from mouse adenosine A2A receptor expressed in HEK293 cells at 10 uM after 60 mins by liquid scintillation counting
Adenosine receptor A2a (Mus musculus), sequence (Q60613 whole entry): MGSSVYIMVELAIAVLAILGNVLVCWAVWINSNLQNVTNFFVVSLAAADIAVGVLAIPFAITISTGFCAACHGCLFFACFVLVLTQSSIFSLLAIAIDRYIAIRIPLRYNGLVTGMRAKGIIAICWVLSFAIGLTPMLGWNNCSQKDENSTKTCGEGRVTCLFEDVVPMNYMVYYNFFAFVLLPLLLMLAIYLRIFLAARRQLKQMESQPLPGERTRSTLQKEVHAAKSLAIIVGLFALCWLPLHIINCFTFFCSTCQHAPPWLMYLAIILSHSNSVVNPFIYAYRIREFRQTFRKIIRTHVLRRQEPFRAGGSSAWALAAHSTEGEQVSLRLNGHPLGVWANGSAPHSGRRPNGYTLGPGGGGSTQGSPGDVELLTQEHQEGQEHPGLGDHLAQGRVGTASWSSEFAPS

| SMILES | inhibition [1] | inhibition (Adenosine receptor A2a) | Ki (Adenosine receptor A3 [2]) | Efficacy [3] | Ki (Adenosine receptor A1 [4]) | Ki (Adenosine receptor A3 [5]) | Ki (Adenosine receptor A1 [6]) | inhibition [7] |
| --- | --- | --- | --- | --- | --- | --- | --- | --- |
| CNC(=O)[C@@]12C[C@@H]1[C@@H](n1cnc3c(NCc4cccc(Cl)c4)nc(C#Cc4cc5cccc6ccc7cccc4c7c65)nc31)[C@H](O)[C@@H]2O | 11% | 4% | 660 nM | 97.1% |  |  |  |  |
| CNC(=O)[C@@]12C[C@@H]1[C@@H](n1cnc3c(NCc4cccc(Cl)c4)nc(C#Cc4ccc(N)cc4)nc31)[C@H](O)[C@@H]2O |  | 44% |  | 76.6% | 1520 nM | 0.82 nM | 261 nM | 5% |
